Patent US4602040A, “Meclofenamic acid topical pharmaceutical composition” (Warner-Lambert Company, priority 1985, dated 1986)

Columns and labels:
[1] = solubility of the drug in water and organic solvents; assay type: physicochemical
[2] = solubility in water-miscible solvents; assay type: physicochemical
[3] = octanol/water partition coefficient; assay type: physicochemical
[4] = tested on: carrageenan edema; assay: carrageenan-induced paw edema, topical meclofenamic acid, C57BL/6 mice; assay type: in vivo
Description: (§1) Method: Carrageenan edema was induced in mice by previously published methods (Levy, L., Life Sciences 8:601, 1969). Briefly, mice were injected in the left rear footpad with either 25 ul or 50 ul of a 1% solution of carrageenan in saline and in the contralateral footpad with a similar volume of saline. At various time intervals thereafter, the swelling was assessed in each of the rear footpads by mercury plethysmography.
(§2) In this example, female C57BL/6 or CD-1 mice were used in all studies, and swelling was assessed five hours after carrageenan injection by mercury plethysmography. Net edema was determined by subtracting the volume of the saline-injected foot from the volume of the carrageenan-injected foot. Meclofenamic acid was administered either topically or perorally one hour after carrageenan injection in a vehicle containing 50% PEG 400 monolaurate, 10 lantrol AWS, and 40% isopropyl alcohol. When applied topically, the appropriate hindpaw was dipped to the hairline in the meclofenamic acid solution or vehicle and rubbed gently for 15 seconds by a technician wearing rubber gloves. Approximately 50 ul of the meclofenamic acid or vehicle solution was used to treat each hindpaw.
(§3) Meclofenamic acid was administered orally by gavage needle in a volume of 50 ul of the monolaurate/lantrol AWS/isopropyl alcohol vehicle used above. Statistical differences in swelling between experimental groups were determined by student's t-test.

[5] = tested on: carrageenan edema; assay: carrageenan-induced paw edema, topical meclofenamic acid, CD-1 mice; assay type: in vivo
Description: as §1
as §2, with “Approximately 50 ul of the meclofenamic acid or vehicle solution was used to treat each hindpaw.” left out
as §3

[6] = tested on: carrageenan edema; assay: carrageenan-induced paw edema, topical versus oral / distant-site administration; assay type: in vivo, C57BL/6 mice
Description: as §1, §2, §3
To determine whether the observed activity of meclofenamic acid was actually due to topical rather than oral (as a result of preening) absorption, meclofenamic acid compositions (containing 1, 3 or 5% active ingredient in the above vehicle) were administered orally or topically (to the carrageenan-injected paw) and the effects on swelling were determined.

## Cc1ccc(Cl)c(Nc2ccccc2C(=O)O)c1Cl [meclofenamic acid]
[1]; glycerin, isopropyl myristate, mineral oil
  solubility in glycerin, isopropyl myristate and mineral oil: insoluble
[1]; propylene glycol, ethyl alcohol, linoleic acid
  solubility in propylene glycol, ethyl alcohol and linoleic acid: less than 5%
[1]; water
  water solubility: virtually water-insoluble
[2]; heating up to 90° C., same solvents, compared with room temperature
  solubility in water-miscible solvents with the aid of heating: more
[2]; room temperature, PEG 400, PEG-8 monolaurate, PEG glucose ethers (Glucam-E 10, P-20), PEG-75 Lanolin Oil, PPG-5-Ceteth-10 Phosphate
  solubility in water-miscible solvents: ≤ 5%
[3]
  octanol/water partition coefficient: highly favorable
[4]; C57BL/6 compared with CD-1 mice, topical
  sensitivity of C57BL/6 mice to the effects of meclofenamic acid: slightly more sensitive
[4]; C57BL/6 mice, topical to carrageenan-injected foot one hour after carrageenan, swelling at five hours
  reduction in swelling (in words): dose-dependent reduction in swelling
[4]; C57BL/6 mice, topical, 3% concentration, five hours after carrageenan
  inhibition of swelling (maximum effect): 49.7%
[5]; topical to carrageenan-injected foot one hour after carrageenan, swelling at five hours
  reduction in swelling (in words): dose-dependent reduction in swelling
[5]; topical, 5% concentration, five hours after carrageenan
  inhibition of swelling (maximum effect): 36.4%
[6]; topical to carrageenan-injected foot vs distant site (saline-injected foot), 1, 3, and 5% concentrations, p<0.05
  inhibition of swelling, carrageenan-injected foot versus distant site: significantly (p<0.05) more inhibitory
[6]; topical to carrageenan-injected foot vs oral, 1, 3, and 5% concentrations, p<0.05
  inhibition of swelling, topical versus oral: significantly (p<0.05) more inhibitory
[6]; topically applied, data from Examples 5 and 6
  local anti-inflammatory activity: significant local anti-inflammatory activity
